In patent US20050282159A1, “Rpob gene of streptomyces, primer specific to streptomyces, and identification method of streptomyces having rifampin resistance or sensitivity by using the same” (priority 2001, published 2005):

How the values were obtained:
Experiment in all cases: rifampin-sensitive test on Bennet solid media
Assay type in all cases: cell-based
Set-up in all cases: key: “(+)” indicates a genotype with rifampin-resistance; “(−)” indicates a genotype with rifampin-susceptibility
S. abikoensis KCTC 9662 = details: TCG (TCC) genotype, 25 ug/ml rifampin, 72 hr
Experimental: (§1) The 47 strains were respectively cultured at 28° C. for 72 hr in Bennet liquid media. The culture solution was then inoculated on Bennet solid media (yeast extract 1 g/L, Beef extract 1 g/L, Tryptone 2 g/L, Glycerol 10 g/L, Agar 15 g/L) containing 25 ug/ml rifampin, and after incubation for 72 hr, rifampin-resistance was tested.

S. actuosus KCTC 9112 = details: TCG (TCC) genotype, 25 ug/ml rifampin, 72 hr
Experimental: as §1

S. aculeolatus KCTC 9680 = details: AAC genotype, 25 ug/ml rifampin, 72 hr
Experimental: as §1

[1] = tested on: S. alanosinicus KCTC 9683; details: AAC genotype, 25 ug/ml rifampin, 72 hr
Experimental: as §1

[2] = tested on: S. albireticuli KCTC 9685; details: TCG (TCC) genotype, 25 ug/ml rifampin, 72 hr
Experimental: as §1

S. albofaciens KCTC 9747 = details: TCG (TCC) genotype, 25 ug/ml rifampin, 72 hr
Experimental: as §1

S. alboniger KCTC 9014 = details: TCG (TCC) genotype, 25 ug/ml rifampin, 72 hr
Experimental: as §1

S. albulus KCTC 9668 = details: TCG (TCC) genotype, 25 ug/ml rifampin, 72 hr
Experimental: as §1

S. albus KCTC 1082 = details: AAC genotype, 25 ug/ml rifampin, 72 hr
Experimental: as §1

S. almquistii KCTC 9751 = details: TCG (TCC) genotype, 25 ug/ml rifampin, 72 hr
Experimental: as §1

S. aminophilus KCTC 9673 = details: AAC genotype, 25 ug/ml rifampin, 72 hr
Experimental: as §1

S. armeniacus KCTC 9120 = details: AAC genotype, 25 ug/ml rifampin, 72 hr
Experimental: as §1

S. bacillaris KCTC 9018 = details: TCG (TCC) genotype, 25 ug/ml rifampin, 72 hr
Experimental: as §1

[3] = tested on: S. bambergiensis KCTC 9019; details: TCG (TCC) genotype, 25 ug/ml rifampin, 72 hr
Experimental: as §1

S. bikiniensis KCTC 9172 = details: TCG (TCC) genotype, 25 ug/ml rifampin, 72 hr
Experimental: as §1

[4] = tested on: S. cacoi asoensis KCTC 9700; details: TCG (TCC) genotype, 25 ug/ml rifampin, 72 hr
Experimental: as §1

S. catenulae KCTC 9223 = details: TCG (TCC) genotype, 25 ug/ml rifampin, 72 hr
Experimental: as §1

S. chartreuses KCTC 9704 = details: TCG (TCC) genotype, 25 ug/ml rifampin, 72 hr
Experimental: as §1

[5] = tested on: S. chattanoogensis KCTC 1087; details: TCG (TCC) genotype, 25 ug/ml rifampin, 72 hr
Experimental: as §1

[6] = tested on: S. chrysomallus KCTC 9705; details: TCG (TCC) genotype, 25 ug/ml rifampin, 72 hr
Experimental: as §1

[7] = tested on: S. cinereoruber KCTC 9707; details: TCG (TCC) genotype, 25 ug/ml rifampin, 72 hr
Experimental: as §1

S. coelicolor KCTC 9005 = details: AAC genotype, 25 ug/ml rifampin, 72 hr
Experimental: as §1

S. durhamensis KCTC 9723 = details: AAC genotype, 25 ug/ml rifampin, 72 hr
Experimental: as §1

S. echinoruber KCTC 9725 = details: AAC genotype, 25 ug/ml rifampin, 72 hr
Experimental: as §1

S. flaveolus KCTC 9022 = details: AAC genotype, 25 ug/ml rifampin, 72 hr
Experimental: as §1

S. plicatus KCTC 9040 = details: AAC genotype, 25 ug/ml rifampin, 72 hr
Experimental: as §1

[8] = tested on: S. sclerotialus KCTC 9065; details: AAC genotype, 25 ug/ml rifampin, 72 hr
Experimental: as §1

CO[C@H]1/C=C/O[C@@]2(C)Oc3c(C)c(O)c4c(O)c(c(/C=N/N5CCN(C)CC5)c(O)c4c3C2=O)NC(=O)/C(C)=C\C=C\[C@H](C)[C@H](O)[C@@H](C)[C@@H](O)[C@@H](C)[C@H](OC(C)=O)[C@@H]1C [rifampin]
genotype (rifampin-resistance or susceptibility) (S. abikoensis KCTC 9662): −
genotype (rifampin-resistance or susceptibility) (S. actuosus KCTC 9112): −
genotype (rifampin-resistance or susceptibility) (S. aculeolatus KCTC 9680): +
genotype (rifampin-resistance or susceptibility) [1]: +
genotype (rifampin-resistance or susceptibility) [2]: −
genotype (rifampin-resistance or susceptibility) (S. albofaciens KCTC 9747): −
genotype (rifampin-resistance or susceptibility) (S. alboniger KCTC 9014): −
genotype (rifampin-resistance or susceptibility) (S. albulus KCTC 9668): −
genotype (rifampin-resistance or susceptibility) (S. albus KCTC 1082): +
genotype (rifampin-resistance or susceptibility) (S. almquistii KCTC 9751): −
genotype (rifampin-resistance or susceptibility) (S. aminophilus KCTC 9673): +
genotype (rifampin-resistance or susceptibility) (S. armeniacus KCTC 9120): +
genotype (rifampin-resistance or susceptibility) (S. bacillaris KCTC 9018): −
genotype (rifampin-resistance or susceptibility) [3]: −
genotype (rifampin-resistance or susceptibility) (S. bikiniensis KCTC 9172): −
genotype (rifampin-resistance or susceptibility) [4]: −
genotype (rifampin-resistance or susceptibility) (S. catenulae KCTC 9223): −
genotype (rifampin-resistance or susceptibility) (S. chartreuses KCTC 9704): −
genotype (rifampin-resistance or susceptibility) [5]: −
genotype (rifampin-resistance or susceptibility) [6]: −
genotype (rifampin-resistance or susceptibility) [7]: −
genotype (rifampin-resistance or susceptibility) (S. coelicolor KCTC 9005): +
genotype (rifampin-resistance or susceptibility) (S. durhamensis KCTC 9723): +
genotype (rifampin-resistance or susceptibility) (S. echinoruber KCTC 9725): +
genotype (rifampin-resistance or susceptibility) (S. flaveolus KCTC 9022): +
genotype (rifampin-resistance or susceptibility) (S. plicatus KCTC 9040): +
genotype (rifampin-resistance or susceptibility) [8]: +
